According to patent US8642510B2, “Inhibitors for brassinosteroid signalling” (GMI-Gregor Mendel-Institut fuer Molekulare Pflanzenbiologie …, priority 2008, dated 2014):
Entries after “also recorded” stand apart in the source; their conditions may differ.

Tests used:
cpd mutant seedlings = details: background statement; cited from earlier work
bri1-1 mutant seedlings = details: background statement; cited from earlier work
[1] = Determination of pKa values; details: for pKa: 50% (v/v) methanol
Protocol: Fifty to 100 mg compound were weighed and dissolved in 50 ml 50% (v/v) methanol. A titration curve with 50 mM NaOH as standard solution was recorded with a Greisinger electonics GPHR 1400A pH meter. The equivalence point was determined by the difference quotient method (ΔpH/ΔVNaOH) and the pKa read from the titration curve at 50% neutralisation.

ASKζ = target: T1, ASKζ (Arabidopsis thaliana, UniProt Q39010); assay: In vivo kinase assay, BZR1-CFP phosphorylation band-shift in protoplasts; format: cell-based, A. thaliana; details: protoplasts co-transformed with BZR1-CFP and Myc-tagged ASK; increasing concentrations
T1 construct: expressed in transfected cells; host or cells: A. thaliana protoplasts
T1 sequence (Q39010 1-412): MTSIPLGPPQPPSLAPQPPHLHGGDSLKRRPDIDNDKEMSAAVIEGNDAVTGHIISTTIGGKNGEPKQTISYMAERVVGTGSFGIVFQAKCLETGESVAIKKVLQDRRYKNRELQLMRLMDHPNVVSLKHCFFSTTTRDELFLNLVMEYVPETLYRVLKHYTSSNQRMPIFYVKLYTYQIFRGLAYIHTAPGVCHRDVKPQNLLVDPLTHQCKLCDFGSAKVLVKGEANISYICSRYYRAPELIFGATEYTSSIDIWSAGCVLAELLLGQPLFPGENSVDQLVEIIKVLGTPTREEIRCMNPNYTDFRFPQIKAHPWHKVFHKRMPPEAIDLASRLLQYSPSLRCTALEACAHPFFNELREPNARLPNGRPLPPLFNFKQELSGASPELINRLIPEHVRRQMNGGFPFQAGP
Excerpt: A. thaliana protoplasts were co-transformed with expression constructs of BZR1-CFP and Myc-tagged ASKζ and treated with increasing concentrations of compounds 10 and 15. […] and ASKζ-Myc were detected by western blot analysis using polyclonal anti-GFP and monoclonal anti-Myc antibodies, respectively. A Coomassie R250 stain is shown as a loading control. Depending on the ASKζ kinase activity BZR1-CFP can be observed in a phosphorylated or unphosphorylated form (indicated by arrows). The ratio of the two ASKζ-Myc bands, indicating posttranslational modification of this protein, were not affected by inhibitor application.
ASKs were expressed as GST-fusion proteins in E. coli BL21. […] The reaction products were separated by SDS-PAGE and the amount of radioactivity incorporated into MBP quantified using an Amersham storage phosphor imager screen and a Biorad Molecular Imager FX. In vivo kinase activity was detected by phosphorylation band-shift assays using BZR1-CFP as substrate.
Because of this unexpected result, the effect of the inhibitions on the in vivo ASK activity was analysed by a direct method. […] Transformed protoplasts were incubated with different concentrations of compounds 10 and 15 and BZR1-CFP and […] and subsequently analysed by western blotting.

BIN2 = target: T2, BIN2 (Arabidopsis thaliana, UniProt Q39011); assay: In vitro kinase assay, GST-BIN2; format: biochemical; details: compounds at 10 μM; result in words
T2 construct: made in house; host or cells: E. coli BL21
T2 sequence (Q39011 1-380): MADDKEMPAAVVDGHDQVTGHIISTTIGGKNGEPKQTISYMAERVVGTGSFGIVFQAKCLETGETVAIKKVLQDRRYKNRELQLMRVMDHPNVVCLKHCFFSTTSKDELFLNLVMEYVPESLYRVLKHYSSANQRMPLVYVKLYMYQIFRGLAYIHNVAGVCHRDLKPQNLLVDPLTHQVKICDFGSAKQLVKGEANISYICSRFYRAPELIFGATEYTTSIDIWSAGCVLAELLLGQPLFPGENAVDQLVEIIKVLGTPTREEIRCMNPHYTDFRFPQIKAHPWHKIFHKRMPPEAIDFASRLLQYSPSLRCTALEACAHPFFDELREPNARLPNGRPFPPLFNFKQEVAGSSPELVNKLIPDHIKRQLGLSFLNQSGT
Protocol: GST-BIN2 was incubated with MBP and γ-[32P]-ATP in the absence or presence of compounds 3, 14 and 15 at a concentration of 10 μM. The proteins were separated by SDS-PAGE and phosphorylation of MBP was quantified with a phospho imager screen. The residual activity is expressed in % of the control. The means and standard deviations were calculated from 4 independent assays.
(§1) ASKs were expressed as GST-fusion proteins in E. coli BL21. In vitro kinase assays were performed by incubating 50 ng GST-fusion protein, 10 μg myelin basic protein (MBP; Sigma, St Louis, Mo.) as substrate and 0.15 MBq γ-[32P]-ATP as co-substrate at 25° C. for 30 min. The reaction buffer consisted of 20 mM HEPES pH7.4, 15 mM MgCl2, 5 mM EGTA and 1 mM DTT. For initial experiments cold ATP was included at concentrations up to 3 μM. The reaction products were separated by SDS-PAGE and the amount of radioactivity incorporated into MBP quantified using an Amersham storage phosphor imager screen and a Biorad Molecular Imager FX. In vivo kinase activity was detected by phosphorylation band-shift assays using BZR1-CFP as substrate.
The second kinase of this class, ASKβ, and the group IV kinase ASKδ are not inhibited. Representatives of all groups were expressed as recombinant GST fusion proteins in E. coli. […]

[2] = tested on: ASKs (A. thaliana GSK-3/Shaggy-like kinases); assay: In vitro kinase assay, GST-ASK fusion proteins with MBP and γ-[32P]-ATP; format: biochemical, Arabidopsis thaliana; details: compounds at 10 μM, result in words
Protocol: GST-ASK fusion proteins were incubated with MBP as substrate and γ-[32P]-ATP as co-substrate in the absence (−) or presence of different derivatives (the numbers correspond to Table 1). […] The compounds were used at a concentration of 10 μM. The proteins were separated by SDS-PAGE and the incorporated radioactive phosphate detected with a storage phosphor imager screen.
as §1
Representatives of all groups were expressed as recombinant GST fusion proteins in E. coli.

[3] = tested on: group I and group II ASKs; details: group I: ASKα, ASKγ, ASKε; group II: BIN2, ASKζ, ASKι; prior knowledge; listed as 4-[(5-bromo-2-pyridinyl)amino]-4-oxobutanoic acid; cited from earlier work
ASKδ = target: T3, ASKδ (Arabidopsis thaliana, UniProt Q9FVS6); details: prior knowledge; listed as 4-[(5-bromo-2-pyridinyl)amino]-4-oxobutanoic acid; cited from earlier work
T3 construct: made in house; host or cells: E. coli BL21
T3 sequence (Q9FVS6 1-420): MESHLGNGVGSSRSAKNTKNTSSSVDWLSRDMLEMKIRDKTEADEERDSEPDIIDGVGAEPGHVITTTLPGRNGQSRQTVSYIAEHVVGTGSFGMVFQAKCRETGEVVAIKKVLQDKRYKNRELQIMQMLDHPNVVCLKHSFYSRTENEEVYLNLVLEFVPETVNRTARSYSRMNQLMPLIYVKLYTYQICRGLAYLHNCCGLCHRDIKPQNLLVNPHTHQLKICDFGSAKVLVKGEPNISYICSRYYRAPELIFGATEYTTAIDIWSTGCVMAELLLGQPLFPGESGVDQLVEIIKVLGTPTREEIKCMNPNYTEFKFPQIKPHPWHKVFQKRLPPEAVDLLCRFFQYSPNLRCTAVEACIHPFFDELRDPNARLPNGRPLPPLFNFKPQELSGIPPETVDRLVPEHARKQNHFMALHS

ASKθ = target: T4, ASKθ (Arabidopsis thaliana, UniProt Q96287); details: prior knowledge; cited from earlier work
T4 construct: made in house; host or cells: E. coli BL21
T4 sequence (Q96287 1-472): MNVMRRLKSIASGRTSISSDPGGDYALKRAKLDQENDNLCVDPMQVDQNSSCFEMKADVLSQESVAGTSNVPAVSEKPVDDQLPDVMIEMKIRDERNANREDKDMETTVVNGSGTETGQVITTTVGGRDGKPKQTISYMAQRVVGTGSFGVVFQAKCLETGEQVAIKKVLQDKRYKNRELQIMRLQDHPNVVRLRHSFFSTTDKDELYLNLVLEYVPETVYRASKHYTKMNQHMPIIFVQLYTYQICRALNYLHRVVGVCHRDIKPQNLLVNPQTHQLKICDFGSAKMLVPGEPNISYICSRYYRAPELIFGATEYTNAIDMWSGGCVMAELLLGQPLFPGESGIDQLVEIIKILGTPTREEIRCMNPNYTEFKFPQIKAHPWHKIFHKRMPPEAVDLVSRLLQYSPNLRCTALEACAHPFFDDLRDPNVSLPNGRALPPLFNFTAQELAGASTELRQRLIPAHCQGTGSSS

ASKβ = target: T5, ASKβ (Arabidopsis thaliana, UniProt O23145); details: prior knowledge; cited from earlier work
T5 construct: made in house; host or cells: E. coli BL21
T5 sequence (O23145 1-431): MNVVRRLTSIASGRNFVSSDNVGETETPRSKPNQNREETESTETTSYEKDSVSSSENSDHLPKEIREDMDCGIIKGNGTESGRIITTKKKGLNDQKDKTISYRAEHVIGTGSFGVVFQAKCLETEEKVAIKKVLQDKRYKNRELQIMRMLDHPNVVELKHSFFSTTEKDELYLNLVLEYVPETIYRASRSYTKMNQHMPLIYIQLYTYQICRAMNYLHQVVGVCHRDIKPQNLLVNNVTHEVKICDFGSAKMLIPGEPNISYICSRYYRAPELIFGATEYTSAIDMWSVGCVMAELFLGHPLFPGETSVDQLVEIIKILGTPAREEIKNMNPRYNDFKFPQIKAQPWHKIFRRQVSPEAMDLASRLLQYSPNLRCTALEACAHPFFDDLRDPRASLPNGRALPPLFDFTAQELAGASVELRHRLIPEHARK

Structure (SMILES)	Rescue of cpd mutant (cpd mutant seedlings)	Rescue of bri1-1 mutant (bri1-1 mutant seedlings)	pKa [1]	Portion undissociated ([1]; intracellular pH of 7.4)	Portion undissociated / lipophilic, capable of diffusion through the membrane ([1]; pH5.8, the pH of the medium) [%]	Inhibition of in vivo ASK activity (BZR1-CFP phosphorylation shift) (ASKζ)	Inhibition of BIN2 in vitro (residual kinase activity) (BIN2)	Inhibition of ASKs in vitro (MBP phosphorylation) [2]	Inhibition of ASKs in vitro (MBP phosphorylation) ([2]; listed as iodo derivative)	Inhibition of group I and group II ASKs [3]	Inhibition of ASKδ (group IV) (ASKδ)	Inhibition of ASKθ (group III) (ASKθ)	Inhibition of ASKβ (group III) (ASKβ)
CC(C)[C@@H](C)[C@@H](O)[C@H](O)[C@@H](C)[C@H]1CC[C@H]2[C@@H]3COC(=O)[C@H]4C[C@H](O)[C@H](O)C[C@]4(C)[C@H]3CC[C@]12C [epi-brassinolide]	rescues cpd	not bril-1	–	–	–	–	–	–	–	–	–	–	–
O=C(O)CCC(=O)Nc1ccc(I)cn1 [Compound 15, 4-[(5-iodopyrid-2-yl)amino]-4-oxobutanoic acid]	–	–	5.8	less than 3%	50	potent inhibitors in vivo; also recorded: highly active; also recorded: high inhibitory activity in vivo	highest potency	highest activity; also recorded: most potent compound in vitro	highly active	–	–	–	–
O=C(O)CCC(=O)Nc1ccc(Br)cn1 [Compound 14, 4-[(5-bromopyrid-2-yl)amino]-4-oxobutanoic acid]	rescues both mutants	rescues both mutants	5.6	–	–	–	–	highly active	–	potent inhibitor; also recorded: most sensitive	not inhibited; also recorded: insensitive	moderately inhibited	not inhibited
